# From patent EP3720857B1, “2-OXO-5H-CHROMENO[4,3-B]PYRIDINES FOR USE IN THE TREATMENT OF HEPATITIS B” (Galapagos NV, priority 2017, dated 2019)
# System: hepatitis virus B (HBV) infection
# Assay: iCell hepatocytes assay, delayed assay (compounds added three days after HBV infection)
# Type: cell-based
# Details: for EC50: Hepatitis B virus, Hepatocyte, HBs ELISA
# Experimental: The principle of the iCell hepatocyte 2.0 96 well assay is to evaluate the inhibitory effect of a test compound on hepatitis virus B (HBV) infection. In this assays the HBV core antigen (HBcAg) and/or extracellular antigen (HBeAg) and/or surface antigen (HBsAg) are used as a marker for HBV infection. Nuclei count may be used as an indication for compound toxicity.
# In the standard assay set-up HBV infection and compound addition are performed on the same day, in the delayed assay the compounds are added three days after HBV infection. iCell hepatocytes 2.0 are human hepatocytes derived from induced pluripotent stem cells (iPSc) purchased from Cellular Dynamics international (CDI, R1027).
# At day 0, iCell hepatocytes 2.0 (CDI, R1027) are thawed and seeded in collagen I coated 96well plates at 112 000c/well (100µL) in plating medium (RPMI supplemented with B27 supplement, 20 ng/mL recombinant human oncostatin M (OSM), 25µg/mL gentamicin, 0.1µM Dexamethasone and iCell medium supplement provided by CDI). Plates are incubated at 37°C, 5% CO2 and daily refreshed with plating medium for the following four days.
# On day 5 and 6, plates are refreshed with 100µL maintenance medium (RPMI supplemented with B27 supplement, 25µg/mL gentamicin, 0.1µM Dexamethasone, and iCell medium supplement provided by CDI) and incubated at 37°C, 5% CO2 until the following day.
# On day 7 (day of infection), the maintenance medium is removed from the assay plates and cells are infected with 50 µL of HBV mix (HBV virus, 4% PEG, 0% or 2% DMSO in maintenance medium). The assay plates were incubated overnight at 37°C, 5% CO2.
# At day 1 post infection (day8), 50µL of HBV mix is removed from the assay plates and refreshed with 100 µL of maintenance medium. The assay plates are incubated at 37°C, 5% CO2 for three days.
# At day 4 post infection (day 11) and day 7 post infection (day14), the supernatant is removed and 100 µL of compound series diluted 1/500 in maintenance medium is added to the assay plates (8 point serial dilution using 1/3 dilution steps in 100% DMSO or 8 point serial dilution using ¼ dilution steps, normalized for 0.2% DMSO. The assay plates were incubated at 37°C, 5% CO2 for three days.
# At day 10 post infection (day 17), 100µL of supernatant is harvested and frozen to -20°C. The cells are fixed with 50 µL of 3.7% formaldehyde and incubated for 30 min at room temperature. After fixation, cells are washed four times with phosphate buffer saline (PBS) with the plate washer (Select 405, microplate washer, Biotek) and subjected to HBc staining. harvested supernatant is used for HBe and/or HBs ELISA.
# The assay plates are blocked with blocking buffer (2% FBS, 3% BSA, 0.2% TritonX100 in PBS) for 1 h at room temperature.
# After blocking, the assay plates are tapped manually and incubated with 50 µL diluted primary antibody (1/700 Rabbit-anti-HBc Ag, Dako, B0586 or 1/350 Rabbit-anti-HBc Ag, Invitrogen, PA516368) in blocking buffer and incubated for 90 min at room temperature.
# After 4 washes of PBST (1XPBS + 0.05% Tween) with the plate washer, the assay plates are incubated with 100 µL of secondary antibody (Donkey-anti-rabbit Alexa 488, Lifetechnologies, A21206) 1/500 diluted in blocking buffer and incubated for 60 min at room temperature in the dark, then washed 4 times with PBST on the plate washer and incubated with 100µL of DAPI (Sigma D9542, stock 5mg/mL) 1/10000 diluted in PBS for 15-30 min at room temperature in the dark.
# Finally, the assay plates are read out on a InCell Analyzer 2200 (GE Healthcare). […]
# After blocking, 30 µL of sample and HBe Ag standard (recombinant hepatitis B virus E antigen protein, 4mg/mL, Abcam, ab91273) are added to the plate. The HBe Ag standard is 1/3 diluted in blocking buffer starting from 1.25µg/mL. A vehicle control is also included. The plate is incubated for 30 min at room temperature.
# After sample incubation, the plates are washed 4 times with PBST on a platewasher followed by 2 washed of PBS. […]
Structure (SMILES),Delayed assay HBs ELISA % inhibition,EC50 [nM]
"CCC1Oc2cc(OCCCOC)c(F)cc2-c2c1cc(C(=O)O)c(=O)n2C1CC1 (stereo not drawn) [Compound 16, 1-cyclopropyl-5-ethyl-9-fluoro-8-(3-methoxypropoxy) -2-oxo-5H-chromeno[4,3-b]pyridine-3-carboxylic acid]",++ (50-75%),22 to 50
"COCCCOc1cc2c(cc1F)-c1c(cc(C(=O)O)c(=O)n1C1CC1)C(C(C)C)O2 (stereo not drawn) [Compound 1, 1-cyclopropyl-9-fluoro-5-isopropyl-8-(3-methoxypropoxy)-2-oxo-5H-chromeno[4,3-b]pyridine-3-carboxylic acid]",++ (50-75%),0.001 to 20
"COCCCOc1cc2c(cc1Cl)-c1c(cc(C(=O)O)c(=O)n1C1CC1)[C@H](C1(C)COC1)O2 [Compound 46, (5R)-9-chloro-1-cyclopropyl-8-(3-methoxypropoxy)-5-(3-methyloxetan-3-yl)-2-oxo-5H-chromeno[4,3-b]pyridine-3-carboxylic acid]",++ (50-75%),0.001 to 20
"COCCCOc1cc2c(cc1Cl)-c1c(cc(C(=O)O)c(=O)n1C1CC1)C(C(C)(C)COC)O2 (stereo not drawn) [Compound 19, 9-chloro-1-cyclopropyl-5-(2-methoxy-1,1-dimethyl-ethyl)-8-(3-methoxypropoxy) -2-oxo-5H-chromeno[4,3-b]pyridine-3-carboxylic acid]",++ (50-75%),22 to 50
"COCCCOc1cc2c(cc1Cl)-c1c(cc(C(=O)O)c(=O)n1C1CC1)CO2 [Compound 6, 9-chloro-1-cyclopropyl-8-(3-methoxypropoxy) -2-oxo-5H-chromeno[4,3-b]pyridine-3-carboxylic acid]",++ (50-75%),22 to 50
"COCCCOc1cc2c(cc1F)-c1c(cc(C(=O)O)c(=O)n1C1CC1)[C@H](C(C)C)O2 [Compound 44, (5S)-1-cyclopropyl-9-fluoro-5-isopropyl-8-(3-methoxypropoxy)-2-oxo-5H-chromeno[4,3-b]pyridine-3-carboxylic acid]",++ (50-75%),> 50
